Laboratory results from US20210106550A1, “COMPOSITIONS FOR PREVENTING OR TREATING COGNITIVE IMPAIRMENT-RELATED DISEASE COMPRISING MUMEFURAL” (KOREA INSTITUTE OF ORIENTAL MEDICINE, priority 2018, published 2021).

Key:
[1] = tested on: ChAT, VAChT, and AChE proteins; assay: western blot of ChAT, VAChT, and AChE proteins in hippocampus; type: in vivo; conditions: compared with the negative control; FIGS. 7A, 7B
Description: (§1) Specifically, 12-week-old Wister rats (350 g to 380 g) were used for the experiments. After obtaining the experimental animals, appearance was visually inspected and then normal symptoms were observed during a 7-day acclimation period. Healthy animals were selected therefrom and assigned to groups by a random method according to body weight ranges, and then experiments were performed. During the acclimation and experiment, a constant breeding environment was maintained under the conditions of a temperature of 23±3° C., a relative humidity of 50±10%, a ventilation frequency of 12 times to 16 times per hour, a 12-hour light-dark cycle (light on at 7:00, light off at 19:00), and an intensity of illumination of 150 Lx to 300 Lx. Experiments were performed using sterilized instruments, and the rats were allowed free access to tap water and a solid feed (PMI nutrition, USA) for 24 hours.
(§2) In order to construct a vascular dementia-mimic animal model, chronic cerebral hypoperfusion was induced by bilateral common carotid artery occlusion (2VO, hereinafter referred to as “brain damage (BCCA0)”) (Wakita et al., 1994). The rats were anesthetized with 4% isoflurane, and the anesthesia was maintained by 1.5% isoflurane during the operation. The central neck was incised to expose the bilateral common carotid artery carefully so as not to cause damage to the vagal nerve. Ligation was performed twice with No. 3 silk, thereby constructing an animal model in which dementia was induced by brain damage.
(§3) After 21 days from the BCCA0 operation, the Wistar rats were orally administered with mumefural for 42 days. The rats were divided into 5 groups listed in Table 1 below, and controls were orally administered with saline. Different concentrations of mumefural were set in the oral administration as low concentration (20 mg/kg), medium concentration (40 mg/kg), and high concentration (80 mg/kg).

[2] = tested on: BDNF and phospho-CREB proteins; assay: western blot of memory-related factors in hippocampus; type: in vivo, Wistar rats
Description: as §1, §2, §3
In order to investigate effects of mumefural on normalization of damaged hippocampus in the dementia-mimic animal model, mumefural was administered in the same manner as in Example 1, and then expression levels of memory-related factors in the hippocampus were analyzed.
Specifically, the hippocampus was excised from each of the dementia-mimic rats after administration of mumefural was completed, and proteins were extracted therefrom. Expression levels of brain-derived neurotrophic factor (BDNF), phospho-cAMP response element-binding protein (phospho-CREB), and cAMP response element-binding protein (CREB) were analyzed by western blotting. β-Actin was used as a loading control.

[3] = tested on: ChAT, VAChT, and AChE proteins; assay: western blot of ChAT, VAChT, and AChE proteins in basal forebrain; type: in vivo; conditions: compared with the negative control; FIGS. 5A, 5B
Description: as §1, §2, §3

[4] = tested on: dementia-mimic rats; assay: water maze test in dementia-mimic animal model; type: in vivo, Wistar rats
Description: as §1, §2, §3
In order to investigate effects of mumefural on enhancing spatial memory in the dementia-mimic animal model, a water maze test was performed after administering mumefural in the same manner as in Example 1 above.
Specifically, a circular water tank (diameter: 180 cm, height: 58 cm) was filled with water at a temperature of 26±2° C. up to 2 cm above a marked platform, screen walls were set up on all sides of the water tank to prevent light from coming through, and a pigment was added thereto to make the water opaque. In addition, labels were attached to given positions (diameter: 12 cm, height: 33.5 cm) of the screen walls to give clues for the rats to search for the marked platform. Spatial memory training was performed […] for 8 days every morning (from 9:00 a.m.) once per day 8 times in total. Time taken for the rats to find the hidden platform and escape latency thereof were measured and regarded as markers of memory, and reduced time of every group was compared every day. Thereafter, a water maze test was performed after 8 days from the training. In this test, time taken for the rats to first find the hidden platform was measured and used as a marker of memory. That is, a shorter time is regarded as more improved recognition ability.

[5] = tested on: P2X7R, TLR4, MyD88, NLRP3, caspase1, IL-1β, IL-18, phospho-STAT3, and NF-κB (p65, p50) proteins; assay: western blot of neurological inflammation proteins in hippocampus; type: in vivo, Wistar rats
Description: as §1, §2, §3
In order to investigate effects of mumefural on reduction of neurological inflammation in the dementia-mimic animal model, mumefural was administered in the same manner as in Example 1, and then expression levels of P2X purinoceptor 7 (P2X7R), toll-like receptor 4 (TLR4), myeloid differentiation primary response 88 (MyD88), nucleotide-binding oligomerization domain-like receptor protein 3 (NLRP3), caspase1, interleukin (IL)-1β, IL-18, phospho-signal transducer and activator of transcription 3 (phospho-STAT3), and NF-κB (p65, p50) proteins were measured in the hippocampus. Meanwhile, these proteins provoke inflammation of nerve cells, causing damage to the brain and resulting in diseases such as dementia.
Specifically, the hippocampus was excised from each of the dementia-mimic rats after administration of mumefural was completed, and proteins were extracted therefrom. Expression levels of the proteins were analyzed by western blotting. β-Actin and LaminB1 were used as loading controls.

[6] = tested on: AChE; assay: enzyme-linked immunosorbent assay of AChE activity in basal forebrain; type: in vivo; conditions: compared with the negative control; FIG. 6
Description: as §1
(§4) In order to construct a vascular dementia-mimic animal model, chronic cerebral hypoperfusion was induced by bilateral common carotid artery occlusion (2VO, hereinafter referred to as “brain damage (BCCA0)”) (Wakita et al., 1994). The rats were anesthetized with 4% isoflurane, and the anesthesia was maintained by 1.5% isoflurane during the operation. The central neck was incised to expose the bilateral common carotid artery carefully so as not to cause damage to the vagal nerve. […]

[7] = tested on: phospho-CAMKII protein; assay: western blot of phospho-CAMKII in hippocampus; type: in vivo, Wistar rats; conditions: compared with the negative control; FIGS. 13A, 13B
Description: Specifically, 12-week-old Wister rats (350 g to 380 g) were used for the experiments. After obtaining the experimental animals, appearance was visually inspected and then normal symptoms were observed during a 7-day acclimation period. Healthy animals were selected therefrom and assigned to groups by a random method according to body weight ranges, and then experiments were performed. […]
In order to investigate effects of mumefural on normalization of damaged hippocampus in the dementia-mimic animal model, mumefural was administered in the same manner as in Example 1, and then expression levels of neurotransmitter secretion substances in the hippocampus were analyzed.
Specifically, the hippocampus was excised from each of the dementia-mimic rats after administration of mumefural was completed, and proteins were extracted therefrom. Expression levels of phospho-Ca^2+/calmodulin-dependent protein kinase II (phospho-CAMKII) and Ca^2+/calmodulin-dependent protein kinase II (CAMKII) proteins were analyzed by western blotting. β-Actin was used as a loading control.

[8] = tested on: MBP; assay: western blot of MBP in hippocampus; type: in vivo, Wistar rats; conditions: compared with the negative control, FIG. 10
Description: as §1, §4

[9] = 20 mg/kg, 40 mg/kg, and 80 mg/kg oral, relative to normal control
[10] = compared with the negative control, FIGS. 14A, 14B
[11] = western blot, compared to the negative control, FIGS. 17A, 17B

## O=Cc1ccc(COC(=O)CC(O)(CC(=O)O)C(=O)O)o1 (stereo not shown) [mumefural]
[1]
  expression level of AChE protein in the hippocampus: decreased
  expression level of ChAT protein in the hippocampus: increased
  expression level of VAChT protein in the hippocampus: increased
[2]; [9]
  expression level of BDNF protein vs normal control: higher expression levels than that of the normal control by about three times or more
  expression level of phospho-CREB protein vs normal control: higher expression levels than that of the normal control by about three times or more
[2]; [10]
  expression level of BDNF protein in hippocampus: significantly increased
  expression level of phospho-CREB protein in hippocampus: significantly increased
[3]
  expression level of AChE protein in the basal forebrain: reduced
  expression level of ChAT protein in the basal forebrain: increased
  expression level of VAChT protein in the basal forebrain: increased
[4]; BCCAo rats, 20 mg/kg, 40 mg/kg, and 80 mg/kg oral, compared with normal control, FIG. 1
  latency to find the hidden platform vs normal control: high latency similar to that of the normal control
[4]; BCCAo rats, 40 mg/kg and 80 mg/kg oral, compared with normal control, FIG. 2
  time to first arrive at the hidden platform vs normal control: short time similar to that of the normal control
[4]; BCCAo rats, oral mumefural 42 days, compared to the negative control, FIG. 2
  time to first arrive at the hidden platform: reduced
[4]; BCCAo rats, oral mumefural 42 days, compared with the negative control (saline), FIG. 1
  latency to find the hidden platform (escape latency): increased
[4]; among the groups (20, 40, 80 mg/kg, controls), FIG. 3
  average swim speeds: no difference
[5]; 20 mg/kg, 40 mg/kg, and 80 mg/kg oral
  neurological inflammation protein expression, effect vs normal control: effects similar to or superior to those of the normal control
[5]; [11]
  expression level of IL-1β protein in hippocampus: decreased
  expression level of IL-18 protein in hippocampus: decreased
  expression level of MyD88 protein in hippocampus: decreased
  expression level of NLRP3 protein in hippocampus: decreased
  expression level of P2X7R protein in hippocampus: decreased
  expression level of TLR4 protein in hippocampus: decreased
  expression level of caspase1 protein in hippocampus: decreased
[5]; western blot, compared to the negative control, FIGS. 18A, 18B
  expression level of phospho-STAT3 protein in hippocampus: decreased
[5]; western blot, compared to the negative control, FIGS. 19A, 19B
  expression level of NF-κB (p65, p50) proteins in hippocampus: decreased
[6]
  activity of AChE in the basal forebrain: reduced
[7]
  expression level of the phospho-CAMKII protein in hippocampus: significantly increased
[8]
  density of the MBP in the hippocampus: increased
